Reference: the NIST ThermoML archive (doi:10.1021/je0340809)

Experiment: xn = mol fraction of the nth substance listed
Conditions: 101.3 kPa, Liquid

O=C1CCCN1 [2-pyrrolidinone] + O
Conditions | mass density [kg/m3] | speed of sound [m/s] | viscosity [mPa·s]
298.15 K, x2 = 0.0549 | 1106.53 | 1637.8 | 13.02
298.15 K, x2 = 0.1506 | 1105.77 | 1641.1 | 12.29
298.15 K, x2 = 0.2552 | 1104.43 | 1662 | 11.77
298.15 K, x2 = 0.35 | 1102.41 | 1691.1 | 11.32
298.15 K, x2 = 0.4496 | 1099.53 | 1711.7 | 10.63
298.15 K, x2 = 0.5 | 1097.71 | 1717.9 | 10.13
298.15 K, x2 = 0.5566 | 1095.2 | 1723.5 | 9.408
298.15 K, x2 = 0.6422 | 1089.78 | 1728.3 | 8.014
298.15 K, x2 = 0.7532 | 1077.07 | 1730.9 | 5.772
298.15 K, x2 = 0.8516 | 1056.03 | 1715.4 | 3.645
298.15 K, x2 = 0.8714 | 1050.24 | 1704.6 | 3.231
298.15 K, x2 = 0.8856 | 1045.71 | 1694.1 | 2.94
298.15 K, x2 = 0.9 | 1040.8 | 1681 | 2.651
298.15 K, x2 = 0.9249 | 1031.48 | 1650.9 | 2.171
298.15 K, x2 = 0.9369 | 1026.61 | 1632.7 | 1.948
298.15 K, x2 = 0.9526 | 1019.88 | 1605.5 | 1.667
298.15 K, x2 = 0.9651 | 1014.21 | 1580.7 | 1.451
298.15 K, x2 = 0.9748 | 1009.64 | 1559.8 | 1.29
298.15 K, x2 = 0.9906 | 1001.87 | 1522.6 | 1.036
308.15 K, x2 = 0.0549 | 1098.69 | 1609.2 | 8.624
308.15 K, x2 = 0.1506 | 1097.66 | 1618.7 | 8.126
308.15 K, x2 = 0.2552 | 1095.98 | 1635.9 | 7.761
308.15 K, x2 = 0.35 | 1093.81 | 1657.3 | 7.452
308.15 K, x2 = 0.4496 | 1090.94 | 1679 | 6.988
308.15 K, x2 = 0.5 | 1089.17 | 1688.1 | 6.657
308.15 K, x2 = 0.5566 | 1086.76 | 1696.7 | 6.188
308.15 K, x2 = 0.6422 | 1081.57 | 1706.4 | 5.289
308.15 K, x2 = 0.7532 | 1069.46 | 1711.6 | 3.853
308.15 K, x2 = 0.8516 | 1049.57 | 1695.1 | 2.489
308.15 K, x2 = 0.8714 | 1044.11 | 1686.1 | 2.224
308.15 K, x2 = 0.8856 | 1039.85 | 1677.9 | 2.038
308.15 K, x2 = 0.9 | 1035.22 | 1667.7 | 1.852
308.15 K, x2 = 0.9249 | 1026.46 | 1645 | 1.544
308.15 K, x2 = 0.9369 | 1021.88 | 1631.3 | 1.401
308.15 K, x2 = 0.9526 | 1015.55 | 1610.1 | 1.22
308.15 K, x2 = 0.9651 | 1010.22 | 1590.4 | 1.082
308.15 K, x2 = 0.9748 | 1005.91 | 1573.1 | 0.977
308.15 K, x2 = 0.9906 | 995.75 | 1540.9 | 0.812
318.15 K, x2 = 0.0549 | 1090.54 | 1570 | 6.104
318.15 K, x2 = 0.1506 | 1089.51 | 1576.7 | 5.778
318.15 K, x2 = 0.2552 | 1087.87 | 1589.9 | 5.543
318.15 K, x2 = 0.35 | 1085.69 | – | 5.344
318.15 K, x2 = 0.4496 | 1082.75 | – | 5.034
318.15 K, x2 = 0.5 | 1080.94 | – | 4.807
318.15 K, x2 = 0.5566 | 1078.51 | 1650.3 | 4.48
318.15 K, x2 = 0.6422 | 1073.38 | 1663.9 | 3.845
318.15 K, x2 = 0.7532 | 1061.72 | 1678.2 | 2.823
318.15 K, x2 = 0.8516 | 1042.81 | 1675 | 1.852
318.15 K, x2 = 0.8714 | 1037.63 | 1669.5 | 1.663
318.15 K, x2 = 0.8856 | 1033.59 | 1664 | 1.53
318.15 K, x2 = 0.9 | 1029.21 | 1656.8 | 1.398
318.15 K, x2 = 0.9249 | 1020.9 | 1639.6 | 1.179
318.15 K, x2 = 0.9369 | 1016.57 | 1628.8 | 1.078
318.15 K, x2 = 0.9526 | 1010.57 | 1611.8 | 0.95
318.15 K, x2 = 0.9651 | 1005.52 | 1595.5 | 0.851
318.15 K, x2 = 0.9748 | 1001.44 | 1581.1 | 0.778
318.15 K, x2 = 0.9906 | 995.2 | 1553.7 | 0.662
328.15 K, x2 = 0.0549 | 1082.33 | 1556 | 4.562
328.15 K, x2 = 0.1506 | 1081.2 | 1562.4 | 4.323
328.15 K, x2 = 0.2552 | 1079.48 | 1574.8 | 4.147
328.15 K, x2 = 0.35 | 1077.27 | 1592.4 | 4
328.15 K, x2 = 0.4496 | 1074.29 | 1612.3 | 3.772
328.15 K, x2 = 0.5 | 1072.48 | 1621.7 | 3.605
328.15 K, x2 = 0.5566 | 1070.03 | 1631.3 | 3.364
328.15 K, x2 = 0.6422 | 1064.97 | 1644.8 | 2.895
328.15 K, x2 = 0.7532 | 1053.71 | 1659.9 | 2.143
328.15 K, x2 = 0.8516 | 1035.74 | 1660.2 | 1.427
328.15 K, x2 = 0.8714 | 1030.84 | 1656.2 | 1.288
328.15 K, x2 = 0.8856 | 1027.01 | 1652 | 1.191
328.15 K, x2 = 0.9 | 1022.85 | 1646.3 | 1.095
328.15 K, x2 = 0.9249 | 1014.98 | 1632.4 | 0.932
328.15 K, x2 = 0.9369 | 1010.86 | 1623.5 | 0.858
328.15 K, x2 = 0.9526 | 1005.16 | 1609.4 | 0.764
328.15 K, x2 = 0.9651 | 1000.35 | 1595.8 | 0.69
328.15 K, x2 = 0.9748 | 996.455 | 1583.8 | 0.637
328.15 K, x2 = 0.9906 | 989.833 | 1560.8 | 0.551
338.15 K, x2 = 0.0549 | 1070.16 | 1526.1 | 3.37
338.15 K, x2 = 0.1506 | 1069.05 | 1532.8 | 3.198
338.15 K, x2 = 0.2552 | 1067.4 | 1545 | 3.076
338.15 K, x2 = 0.35 | 1065.29 | 1562 | 2.973
338.15 K, x2 = 0.4496 | 1062.48 | 1581.5 | 2.81
338.15 K, x2 = 0.5 | 1060.76 | 1590.8 | 2.69
338.15 K, x2 = 0.5566 | 1058.45 | 1600.7 | 2.516
338.15 K, x2 = 0.6422 | 1053.71 | 1615.2 | 2.177
338.15 K, x2 = 0.7532 | 1043.28 | 1632.8 | 1.63
338.15 K, x2 = 0.8516 | 1026.75 | 1638.6 | 1.11
338.15 K, x2 = 0.8714 | 1022.24 | 1636.4 | 1.009
338.15 K, x2 = 0.8856 | 1018.73 | 1633.7 | 0.938
338.15 K, x2 = 0.9 | 1014.9 | 1629.8 | 0.867
338.15 K, x2 = 0.9249 | 1007.65 | 1619.7 | 0.749
338.15 K, x2 = 0.9369 | 1003.86 | 1613 | 0.695
338.15 K, x2 = 0.9526 | 998.592 | 1602.2 | 0.627
338.15 K, x2 = 0.9651 | 994.147 | 1591.6 | 0.574
338.15 K, x2 = 0.9748 | 990.543 | 1582 | 0.535
338.15 K, x2 = 0.9906 | 984.343 | 1563.7 | 0.473
